Each compound was assayed against T1, TRPC3 (Homo sapiens, UniProt Q13507) (assay: whole-cell patch clamp of HEK293 cells transfected with hTRPC3, currents activated by GSK1702934A). Conditions: 10 μM compound in presence of agonist GSK1702934A; HEK293 whole-cell peak current; read-out: hTRPC3 % Inhibition at 10 μM (mean ± SEM).
T1 sequence (Q13507 1-921): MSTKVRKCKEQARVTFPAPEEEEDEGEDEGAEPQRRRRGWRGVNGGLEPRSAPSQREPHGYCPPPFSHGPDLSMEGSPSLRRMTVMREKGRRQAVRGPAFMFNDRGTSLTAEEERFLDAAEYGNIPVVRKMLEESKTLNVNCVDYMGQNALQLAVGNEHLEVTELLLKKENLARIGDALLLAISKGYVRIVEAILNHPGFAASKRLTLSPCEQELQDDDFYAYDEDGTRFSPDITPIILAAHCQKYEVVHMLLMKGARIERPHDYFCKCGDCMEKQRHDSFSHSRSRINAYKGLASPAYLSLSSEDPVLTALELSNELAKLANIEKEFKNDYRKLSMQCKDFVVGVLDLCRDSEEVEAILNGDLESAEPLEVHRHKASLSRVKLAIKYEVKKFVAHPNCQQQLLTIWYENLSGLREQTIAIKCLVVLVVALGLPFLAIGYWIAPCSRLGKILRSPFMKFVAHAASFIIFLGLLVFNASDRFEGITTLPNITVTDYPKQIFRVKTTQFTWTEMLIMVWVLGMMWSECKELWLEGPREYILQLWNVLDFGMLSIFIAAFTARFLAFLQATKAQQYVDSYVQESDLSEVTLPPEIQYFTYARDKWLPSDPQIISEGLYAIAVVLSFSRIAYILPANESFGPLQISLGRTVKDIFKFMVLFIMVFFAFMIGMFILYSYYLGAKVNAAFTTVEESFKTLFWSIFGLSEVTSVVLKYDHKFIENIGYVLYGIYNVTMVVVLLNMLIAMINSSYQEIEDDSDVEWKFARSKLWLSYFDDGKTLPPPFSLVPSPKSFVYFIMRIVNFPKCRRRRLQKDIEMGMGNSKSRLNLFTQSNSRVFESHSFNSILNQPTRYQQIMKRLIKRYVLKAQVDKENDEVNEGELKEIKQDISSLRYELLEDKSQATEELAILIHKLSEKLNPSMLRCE
Type: cell-based
Set-up: expressed in transfected cells; host or cells: HEK293 (CRL-1573), transient transfection, pMO vector
Protocol: Human embryonic kidney 293 (HEK293; catalog number CRL-1573) cells were cultured in Dulbecco's modified Eagle's medium (Invitrogen) supplemented with 10% fetal bovine serum and 1% penicillin-streptomycin at 37° C. and 5% CO2. Constructs cloned in pMO (a pcDNA3-modified vector) were co-transfected with GFP-pMO, using Lipofectamine 2000 (Invitrogen) according to the manufacturer's instructions. Macroscopic currents in the whole-cell patch clamp configuration were recorded 18-24 h post-transfection. The extracellular solution contained 140 mM NaCl, 6 mM KCl, 2 mM MgCl2, 10 mM HEPES, and 10 mM glucose (pH 7.4). Pipettes were made of borosilicate glass (outer diameter, 1.5 mm; inner diameter, 1.10 mm; Sutter Instruments) and fire-polished with a resistance between 2.8 and 4.0 megaohms when filled with an intracellular solution that contained 140 mM CsCl, 5 mM EGTA, and 10 mM HEPES, pH 7.2. Currents were recorded with a Multiclamp 700B amplifier (Molecular Devices) using a 1-s ramp from −100 to 100 mV. Agonist and antagonists perfused were dissolved in the bath solution prior experiments: TRP channel agonists Allyl isothiocyanate (AITC; TRPA1), capsaicin (TRPV1), and menthol (TRPM8) were obtained from Sigma, GSK1016790A (TRPV4) from Cayman chemicals, and GSK1702934A (TRPC3, TRPC6 and TRPC7) from Tocris Bioscience. Antagonist Pyr3 was obtained from Tocris Bioscience, all other antagonists were synthesized in house. Data were acquired with a sampling rate of 20 kHz, low-pass filtered (10 kHz), and analyzed offline using Clampfit v10.4.2.0 (Molecular Devices).
Electrophysiology results were expressed as means±SD. Data were plotted, and sigmoidal fitting was done using OriginPro (from OriginLab), with the following Boltzmann function:
Using the patch clamp technique in the whole-cell configuration, compounds were screened by challenging hTRPC3 overexpressing HEK293 cells with GSK1702934A to activate TRPC3 and each of the synthesized compounds (10 μM) individually in the presence of the agonist.
To avoid tachyphylaxis and determine the IC50 of compound 22, each point of the dose response curve (FIG. 1B) was done individually on a cell and exchanging coverslips between cells. […] FIGS. 1D-1I show the inhibition of TRPC3-mediated currents by compound 22 and Pyr3 (serving as the reference control). […] Similar results were obtained when OAG was used as the agonist (data not shown).

inhibition at 10 µM [%] | Structure (SMILES)
54.9 ± 4.61 | CCNC(=O)c1sc(-c2ccc(-n3ccc(Cl)c(Cl)c3=O)cc2)nc1C(F)(F)F [Compound 65, 2-(4-(3,4-dichloro-2-oxopyridin-1(2H)-yl)phenyl)-N-ethyl-4-(trifluoromethyl)thiazole-5-carboxamide]
98.08 ± 0.85 | CCNC(=O)c1cnn(-c2ccc(-n3ccc(Cl)c(Cl)c3=O)cc2)c1 [Compound 50, 1-(4-(3,4-dichloro-2-oxopyridin-1(2H)-yl)phenyl)-N-ethyl-1H-pyrazole-4-carboxamide]
74.8 ± 5.65 | O=C(NC1CC1)c1cnn(-c2ccc(-n3ccc(Cl)c(Cl)c3=O)cc2)c1C(F)(F)F [Compound 44, N-cyclopropyl-1-(4-(3,4-dichloro-2-oxopyridin-1(2H)-yl)phenyl)-5-(trifluoromethyl)-1H-pyrazole-4-carboxamide]
97.23 ± 0.89 | CCNC(=O)c1cn(-c2ccc(-n3ccc(Cl)c(Cl)c3=O)cc2)nc1C(F)(F)F [Compound 49, 1-(4-(3,4-dichloro-2-oxopyridin-1(2H)-yl)phenyl)-N-ethyl-3-(trifluoromethyl)-1H-pyrazole-4-carboxamide]
34 ± 6.52 | CCNC(=O)c1cnn(-c2ccc(-n3cc(Br)c(Cl)c(Br)c3=O)cc2)c1C(F)(F)F [Compound 34]
25.8 ± 8.57 | CC(C)NC(=O)c1cnn(-c2ccc(-n3ccc(Cl)c(Cl)c3=O)cc2)c1C(F)(F)F [Compound 41, 1-(4-(3,4-dichloro-2-oxopyridin-1(2H)-yl)phenyl)-N-isopropyl-5-(trifluoromethyl)-1H-pyrazole-4-carboxamide]
40.2 ± 3.95 | CCCCNC(=O)c1cnn(-c2ccc(-n3ccc(Cl)c(Cl)c3=O)cc2)c1C(F)(F)F [Compound 40, N-butyl-1-(4-(3,4-dichloro-2-oxopyridin-1(2H)-yl)phenyl)-5-(trifluoromethyl)-1H-pyrazole-4-carboxamide]
84.52 ± 0.722 | CCNC(=O)c1cnn(-c2ccc(-n3ccc(Cl)cc3=O)cc2)c1C(F)(F)F [Compound 21, 1-(4-(4-chloro-2-oxopyridin-1(2H)-yl)phenyl)-N-ethyl-5-(trifluoromethyl)-1H-pyrazole-4-carboxamide]
72.3 ± 2.88 | CCNC(=O)c1cnn(-c2ccc(-n3ccc(Cl)c(Cl)c3=O)cc2)c1Cl [Compound 51, 5-chloro-1-(4-(3,4-dichloro-2-oxopyridin-1(2H)-yl)phenyl)-N-ethyl-1H-pyrazole-4-carboxamide]
63.4 ± 4.83 | CCCC(=O)c1cnn(-c2ccc(-n3ccc(Cl)c(Cl)c3=O)cc2)c1C(F)(F)F [Compound 69, 1-(4-(4-butyryl-5-(trifluoromethyl)-1H-pyrazol-1-yl)phenyl)-3,4-dichloropyridin-2(1H)-one]
54 ± 7.25 | CCOC(=O)c1cnn(-c2ccc(-n3cc(Cl)ccc3=O)cc2)c1C(F)(F)F [Compound 3, Ethyl 1-(4-(5-chloro-2-oxopyridin-1(2H)-yl)phenyl)-5-(trifluoromethyl)-1H-pyrazole-4-carboxylate]
96 ± 1.37 | CCNC(=O)c1cnn(-c2ccc(-n3ccc(O)c(Cl)c3=O)cc2)c1C(F)(F)F [Compound 32, 1-(4-(3-chloro-4-hydroxy-2-oxopyridin-1(2H)-yl)phenyl)-N-ethyl-5-(trifluoromethyl)-1H-pyrazole-4-carboxamide]
71.5 ± 4.51 | CCCNC(=O)c1cnn(-c2ccc(-n3ccc(Cl)c(Cl)c3=O)cc2)c1C(F)(F)F [Compound 39, 1-(4-(3,4-dichloro-2-oxopyridin-1(2H)-yl)phenyl)-N-propyl-5-(trifluoromethyl)-1H-pyrazole-4-carboxamide]
86 ± 2.8 | CCC(=O)Nc1cnn(-c2ccc(-n3ccc(Cl)c(Cl)c3=O)cc2)c1C(F)(F)F [Compound 58, N-(1-(4-(3,4-dichloro-2-oxopyridin-1(2H)-yl)phenyl)-5-(trifluoromethyl)-1H-pyrazol-4-yl)propionamide]
72.7 ± 7.96 | CS(=O)(=O)c1cnn(-c2ccc(-n3ccc(Cl)c(Cl)c3=O)cc2)c1C(F)(F)F [Compound 73, 3,4-Dichloro-1-(4-(4-(methylsulfonyl)-5-(trifluoromethyl)-1H-pyrazol-1-yl)phenyl)pyridine-2(1H)-one]
55.5 ± 7.07 | CCNC(=O)c1cnn(-c2ccc(-n3ccc(Cl)c(F)c3=O)cc2)c1C(F)(F)F [Compound 24]
95.9 ± 3.72 | CCNC(=O)c1ncn(-c2ccc(-n3ccc(Cl)c(Cl)c3=O)cc2)c1C(F)(F)F [Compound 59, 1-(4-(3,4-dichloro-2-oxopyridin-1(2H)-yl)phenyl)-N-ethyl-5-(trifluoromethyl)-1H-imidazole-4-carboxamide]
23.2 ± 1.23 | CCNC(=O)c1cnn(-c2ccc(NC(=O)C(Cl)=C(Cl)Cl)cc2)c1C(F)(F)F [Compound 79, N-ethyl-1-(4-(2,3,3-trichloroacrylamido)phenyl)-5-(trifluoromethyl)-1H-pyrazole-4-carboxamide]
51.5 ± 6 | CCNC(=O)c1cnn(-c2ccc(-n3cc(Cl)c(Cl)cc3=O)cc2)c1C(F)(F)F [Compound 23]
68.3 ± 2.11 | CCOCc1cnn(-c2ccc(-n3ccc(Cl)c(Cl)c3=O)cc2)c1C(F)(F)F [Compound 78, 3,4-dichloro-1-(4-(4-(ethoxymethyl)-5-(trifluoromethyl)-1H-pyrazol-1-yl)phenyl)pyridin-2(1H)-one]
52.1 ± 8.41 | CC(=O)c1cnn(-c2ccc(-n3cc(Cl)c(C)c(Cl)c3=O)cc2)c1C(F)(F)F [Compound 72, 1-(4-(4-acetyl-5-(trifluoromethyl)-1H-pyrazol-1-yl)phenyl)-3,5-dichloro-4-methylpyridin-2(1H)-one]
60.4 ± 5.12 | CC(=O)c1cnn(-c2ccc(-n3ccc(Cl)cc3=O)cc2)c1C(F)(F)F [Compound 66, 1-(4-(4-acetyl-5-(trifluoromethyl)-1H-pyrazol-1-yl)phenyl)-4-chloropyridin-2(1H)-one]
86.9 ± 3.83 | CCNC(=O)c1nn(-c2ccc(-n3ccc(Cl)c(Cl)c3=O)cc2)nc1C(F)(F)F [Compound 63, 2-(4-(3,4-dichloro-2-oxopyridin-1(2H)-yl)phenyl)-N-ethyl-5-(trifluoromethyl)-2H-1,2,3-triazole-4-carboxamide]
89.4 ± 6.45 | CCNC(=O)c1cnn(-c2ccc(-n3ccc(C(F)(F)F)c(Cl)c3=O)cc2)c1C(F)(F)F [Compound 27, 1-(4-(3-chloro-2-oxo-4-(trifluoromethyl)pyridin-1(2H)-yl)phenyl)-N-ethyl-5-(trifluoromethyl)-1H-pyrazole-4-carboxamide]
49.5 ± 3.91 | CCOC(=O)c1cnn(-c2ccc(-n3ccccc3=O)cc2)c1C(F)(F)F [Compound 1, Ethyl 1-(4-(2-oxopyridin-1(2H)-yl)phenyl)-5-(trifluoromethyl)-1H-pyrazole-4-carboxylate]

Same assay, conditions: agonist GSK1702934A; HEK293 whole-cell patch clamp; read-out: hTRPC3 IC50 (μM, mean ± SEM)

IC50 [µM] | Structure (SMILES)
2.56 ± 0.52 | CCNC(=O)c1cnn(-c2ccc(-n3ccc(Cl)c(Cl)c3=O)cc2)c1 [Compound 50, 1-(4-(3,4-dichloro-2-oxopyridin-1(2H)-yl)phenyl)-N-ethyl-1H-pyrazole-4-carboxamide]
1.1 ± 0.24 | CCNC(=O)c1cn(-c2ccc(-n3ccc(Cl)c(Cl)c3=O)cc2)nc1C(F)(F)F [Compound 49, 1-(4-(3,4-dichloro-2-oxopyridin-1(2H)-yl)phenyl)-N-ethyl-3-(trifluoromethyl)-1H-pyrazole-4-carboxamide]
0.35 ± 0.09 | CCNC(=O)c1cnn(-c2ccc(-n3ccc(O)c(Cl)c3=O)cc2)c1C(F)(F)F [Compound 32, 1-(4-(3-chloro-4-hydroxy-2-oxopyridin-1(2H)-yl)phenyl)-N-ethyl-5-(trifluoromethyl)-1H-pyrazole-4-carboxamide]
0.87 ± 0.17 | CCNC(=O)c1ncn(-c2ccc(-n3ccc(Cl)c(Cl)c3=O)cc2)c1C(F)(F)F [Compound 59, 1-(4-(3,4-dichloro-2-oxopyridin-1(2H)-yl)phenyl)-N-ethyl-5-(trifluoromethyl)-1H-imidazole-4-carboxamide]

Reference: patent US20230265068A1, “TRANSIENT RECEPTOR POTENTIAL CANONICAL 3 INHIBITORS AND METHODS OF USE THEREOF” (University of Tennessee Research Foundation, priority 2020, published 2023)
